Test results as given in ChEMBL document CHEMBL6182851, “Discovery of dual CDK4/6 and BRD4 inhibitor as apoptosis and autophagy inducers against NSCLC in vitro and in vivo” (Eur J Med Chem, 2025).
The source made the active and inactive calls. The rule behind the calls is not given here.

What was measured:
[1] = AUC (0 to infinity) in male Sprague-Dawley rat at 5 mg/kg, iv measured up to 24 hrs by LC-MS/MS analysis; assay type: ADME, organism-based; settings: in vivo
[2] = system: L02; assay: Cytotoxicity against human LO2 cells assessed as inhibition of cell viability at 5 to 10 uM incubated for 48 hrs by MTT assay; assay type: toxicity, cell-based; settings: l02, 48 h, dose 5-10 µM
[3] = Toxicity in mouse assessed as histological change in heart at 400 mg/kg, ip measured for 21 days by H and E staining based analysis; assay type: organism-based; settings: in vivo, 504 h, time 21 day
[4] = Toxicity in mouse assessed as body weight change at 100 to 400 mg/kg, ip measured for 21 days; assay type: organism-based; settings: in vivo, 504 h, dose 100-400 mg/kg, time 21 day
[5] = system: NCI-H460; assay: Antitumor activity against human NCI-H460 cells xenografted in female BALB/c nude mouse assessed as decrease in Ki67-positive cells at 50 mg/kg, ip administered for 21 consecutive days by immunohistochemical analysis; assay type: functional, organism-based; settings: time 21.0 day
[6] = system: NCI-H460; assay: Induction of autophagy in human NCI-H460 cells assessed as decrease in P62 expression at 2 to 8 uM incubated for 48 hrs by Western blotting analysis; assay type: functional, cell-based; settings: dose 2-8 µM
[7] = system: NCI-H460; assay: Induction of apoptosis in human NCI-H460 cells assessed as early apoptotic cells at 8 uM incubated for 48 hrs by Annexin V-PE/7-AAD staining based flow cytometric analysis (reference value: 3.58 %); assay type: functional
[8] = system: NCI-H460; assay: Induction of autophagy in human NCI-H460 cells assessed as reduction in intracellular mTOR protein expression; assay type: functional, cell-based
[9] = system: NCI-H460; assay: Induction of autophagy in human NCI-H460 cells assessed as production of autophagic vesicles at 4 uM incubated for 24 hrs by transmission electron microscopic analysis; assay type: functional, cell-based
[10] = system: NCI-H460; assay: Antitumor activity against human NCI-H460 cells xenografted in female BALB/c nude mouse assessed as reduction in P-RB expression at 50 mg/kg, ip administered for 21 consecutive days by immunohistochemical analysis; assay type: functional, organism-based; settings: time 21.0 day
[11] = system: NCI-H460; assay: Induction of autophagy in human NCI-H460 cells assessed as increase in vacuole formation incubated for 12 hrs by microscopic analysis; assay type: functional, cell-based
[12] = MRT (0 to infinity) in male Sprague-Dawley rat at 5 mg/kg, iv measured up to 24 hrs by LC-MS/MS analysis; assay type: ADME, organism-based; settings: in vivo
[13] = system: NCI-H460; assay: Induction of apoptosis in human NCI-H460 cells assessed as early apoptotic cells at 4 uM incubated for 48 hrs by Annexin V-PE/7-AAD staining based flow cytometric analysis (reference value: 3.58 %); assay type: functional
[14] = system: NCI-H460; assay: Induction of autophagy in human NCI-H460 cells assessed as colocalization of LC3B site with LAMP1 protein incubated for 24 hrs by immunofluorescence analysis; assay type: functional, cell-based; settings: dose 2-8 µM
[15] = system: NCI-H460; assay: Induction of autophagy in human NCI-H460 cells assessed as increase in autophagic vesicles at 4 uM incubated for 24 hrs by transmission electron microscopic analysis; assay type: functional, cell-based
[16] = system: NCI-H460; assay: Antiproliferative activity against human NCI-H460 cells assessed as decrease in p-Rb expression at 2 to 8 uM treated for 24 hrs by immunofluorescence analysis; assay type: functional, cell-based; settings: dose 2-8 µM
[17] = system: NCI-H460; assay: Induction of apoptosis in human NCI-H460 cells assessed as late apoptotic cells at 8 uM incubated for 48 hrs by Annexin V-PE/7-AAD staining based flow cytometric analysis (reference value: 3.76 %); assay type: functional
[18] = C0 in male Sprague-Dawley rat at 5 mg/kg, iv measured up to 24 hrs by LC-MS/MS analysis; assay type: ADME, organism-based; settings: in vivo
[19] = system: NCI-H460; assay: Induction of apoptosis in human NCI-H460 cells assessed as late apoptotic cells at 4 uM incubated for 48 hrs by Annexin V-PE/7-AAD staining based flow cytometric analysis (reference value: 3.76 %); assay type: functional
[20] = system: NCI-H460; assay: Antitumor activity against human NCI-H460 cells xenografted in female BALB/c nude mouse assessed as suppression of tumor volume at 50 mg/kg, ip administered for 21 consecutive days; assay type: functional, organism-based; settings: time 21.0 day
[21] = Toxicity in mouse assessed as histological change in spleen at 400 mg/kg, ip measured for 21 days by H and E staining based analysis; assay type: organism-based; settings: in vivo, 504 h, time 21 day
[22] = system: NCI-H460; assay: Induction of autophagy in human NCI-H460 cells assessed as production of autophagic lysosomes at 4 uM incubated for 24 hrs by transmission electron microscopic analysis; assay type: functional, cell-based
[23] = system: NCI-H460; assay: Induction of autophagy in human NCI-H460 cells assessed as suspension of dead cells incubated for 12 hrs by microscopic analysis; assay type: functional, cell-based
[24] = system: NCI-H460; assay: Induction of autophagy in human NCI-H460 cells assessed as increase in acidic vesicles incubated for 48 hrs by MDC staining and LC3B immunofluorescence analysis; assay type: functional, cell-based; settings: dose 2-8 µM
[25] = Toxicity in mouse assessed as histological change in liver at 400 mg/kg, ip measured for 21 days by H and E staining based analysis; assay type: organism-based; settings: in vivo, 504 h, time 21 day
[26] = target: T1, Cyclin-dependent kinase 4 (Homo sapiens, UniProt P11802); assay: Binding affinity to CDK4 in human NCI-H460 cells assessed as increase in thermal stabilization at 38 to 62 degreeC at 1 uM pretreated for 6 hrs followed by heat exposure for 3 mins and subsequently incubated at room temperature for 3 mins by CETSA; assay type: cell-based; settings: time 366.0 min
[27] = system: NCI-H460; assay: Antitumor activity against human NCI-H460 cells xenografted in female BALB/c nude mouse assessed as tumor growth inhibition at 50 mg/kg, ip administered for 21 consecutive days relative to control; assay type: functional; settings: NCI-H460, 504 h, time 21 day, read-out: TGI
[28] = system: NCI-H460; assay: Induction of autophagy in human NCI-H460 cells assessed as reduction in intracellular PI3K protein expression; assay type: functional, cell-based
[29] = system: NCI-H460; assay: Induction of cell cycle arrest in human NCI-H460 cells assessed as accumulation of cells at G1 phase at 2 uM incubated for 48 hrs by PI staining based flow cytometric analysis (reference value: 56.7 %); assay type: functional
[30] = system: NCI-H460; assay: Induction of autophagy in human NCI-H460 cells assessed as reduction in intracellular AKT protein expression; assay type: functional, cell-based
[31] = system: NCI-H460; assay: Induction of autophagy in human NCI-H460 cells assessed as increase in autophagosomes incubated for 48 hrs by MDC staining and LC3B immunofluorescence analysis; assay type: functional, cell-based; settings: dose 2-8 µM
[32] = system: NCI-H460; assay: Induction of apoptosis in human NCI-H460 cells assessed as necrotic cells at 8 uM incubated for 48 hrs by Annexin V-PE/7-AAD staining based flow cytometric analysis (reference value: 0.79 %); assay type: functional
[33] = Half life in male Sprague-Dawley rat at 5 mg/kg, iv measured up to 24 hrs by LC-MS/MS analysis; assay type: ADME, organism-based; settings: in vivo
[34] = target: T1, Cyclin-dependent kinase 4; assay: Inhibition of CDK4 (unknown origin)
[35] = Clearance in male Sprague-Dawley rat at 5 mg/kg, iv measured up to 24 hrs by LC-MS/MS analysis; assay type: ADME, organism-based; settings: in vivo
[36] = AUC (0 to t) in male Sprague-Dawley rat at 5 mg/kg, iv measured up to 24 hrs by LC-MS/MS analysis; assay type: ADME, organism-based; settings: in vivo
[37] = Apparent volume of distribution in male Sprague-Dawley rat at 5 mg/kg, iv measured up to 24 hrs by LC-MS/MS analysis; assay type: ADME, organism-based; settings: in vivo, read-out: Vz

T1 sequence (P11802 whole entry): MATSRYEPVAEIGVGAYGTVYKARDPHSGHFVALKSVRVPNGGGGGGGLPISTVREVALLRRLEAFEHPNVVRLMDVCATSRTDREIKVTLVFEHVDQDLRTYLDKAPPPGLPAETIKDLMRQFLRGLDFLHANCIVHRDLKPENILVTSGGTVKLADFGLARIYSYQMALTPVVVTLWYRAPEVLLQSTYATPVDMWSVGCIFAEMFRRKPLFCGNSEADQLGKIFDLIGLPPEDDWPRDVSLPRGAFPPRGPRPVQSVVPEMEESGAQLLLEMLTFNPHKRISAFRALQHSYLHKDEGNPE

SMILES: COc1cc(-c2nc3ccc(F)cc3c(=O)[nH]2)cc(OC)c1OCC(=O)N1CCN(c2ccc(Nc3ncc4cc(C(=O)N(C)C)n(C5CCCC5)c4n3)nc2)CC1
- AUC(0-inf) [1]: 3860 ng·h/mL
- Activity [2]: Non-toxic
- Activity [3]: Non-toxic
- Activity [4]: Non-toxic
- Activity [5]: Active
- Activity [6]: Active
- Activity [7]: 16.9%
- Activity [8]: Dose-dependent-effect
- Activity [9]: Active
- Activity [10]: Active
- Activity [11]: Active
- MRT inf [12]: 3.04 h
- Activity [13]: 8.81%
- Activity [14]: Dose-dependent-effect
- Activity [15]: Active
- Activity [16]: Active
- Activity [17]: 3.07%
- C0 at 24 h [18]: 6000 ng/mL
- Activity [19]: 6.56%
- Activity [20]: Active
- Activity [21]: Non-toxic
- Activity [22]: Active
- Activity [23]: Active; Minor Suspension Was Observed
- Activity [24]: Dose-dependent-effect
- Activity [25]: Non-toxic
- Activity [26]: Active
- inhibition in vivo at 50 mg/kg [27]: 85.3%
- Activity [28]: Dose-dependent-effect
- Activity [29]: 60.6%
- Activity [30]: Dose-dependent-effect
- Activity [31]: Dose-dependent-effect
- Activity [32]: 1.17%
- half-life [33]: 445 min
- IC50 [34]: 85.1 nM
- clearance [35]: 22.3 mL/min/kg
- AUC(0-t) at 24 h [36]: 3780 ng·h/mL
- Vd [37]: 14.1 L/kg
